Laboratory results: PMC12078333, “Pharmacokinetic evaluation and bioavailability of KPT-335 (Verdinexor) in cats” (Frontiers in Veterinary Science, 2025)
Several values for one entry are separate records, joined by “and”; a condition that tells them apart may be missing. Equal entries are not always repeated. Where two headings read alike, the source gives them in different places.

Assay: Pharmacokinetics study of KPT-335 in cats (i.v. injection, p.o. capsules and tablets; UPLC-MS/MS, non-compartmental analysis)
Type: in vivo
Settings: for Plasma concentration: individual cats 1-6; for AUC(0-t) / Cmax: plasma
Method: In this study, a parallel trial design was employed, 42 adult domestic cats (21 males and 21 females), aged 1 to 2 years and weighing 2.5 ± 0.25 kg. Cats were grouped by random number, with half male and female in each group, and all cats were determined to be systemically healthy during an initial screening visit 1 week prior to the experiment. They were acclimatized to the laboratory environment for 7 days before the study commenced. During this period, they were kept in solitary cages with free access to water. Cats in the fasting group were deprived of food for 12 h prior to and 2 h following drug administration, while those in the feeding group were fed twice a day. Food and water sources were consistent throughout the trail. During and at the end of the experiment, we systematically assessed the adverse reactions by recording parameters such as body weight, behavior, and coat gloss in all test cats both before and after the trial. These observations were conducted to evaluate whether any adverse reactions occurred. All procedures were reviewed and approved by the Institutional Animal Care and Use Committee of China Agricultural University (11305-23-E-002).
The UPLC-MS/MS system utilized a UPLC 1290 (Agilent) paired with a Phenomenex Kinetex C18 column (50 mm × 2.1 mm, 2.6 μm) for separation at a flow rate of 0.3 mL/min. The chromatographic mobile phase comprised water (A) and acetonitrile (B), both containing 0.1% formic acid. The gradient elution program was as follows: from 0.5 to 2.5 min, 10 to 95% B; from 2.5 to 4.5 min, 95% B; from 4.5 to 4.6 min, 95 to 10% B; and from 4.6 to 6.0 min, 10% B. The injection volume was 2 μL.
For mass spectrometry, an Agilent 6,475-LC-TQ equipped with an electrospray ion source was used. Multiple Reaction Monitoring (MRM) was selected to quantify KPT-335 in the positive ion mode. The ion transitions monitored were m/z 443.1 → 334.0 and 443.1 → 110.1 for KPT-335, and m/z 444.1 → 334.0 for the internal standard (IS). The cone voltage and collision energy were optimized for KPT-335 and the IS individually, set at 160 V and 25 eV, respectively. The optimized parameters for the instrument included an ion source temperature of 350°C, solvent removal temperature of 320°C, capillary voltage of 3.0 kV, and a solvent gas flow rate of 300 L/h.
The method was developed based on prior research conducted in the laboratory ([16]) and validated in accordance with international guidelines ([17]). The calibration concentration range for KPT-335 spanned from 0.5 to 100 ng/mL, with a lower limit of quantification (LLOQ) set at 0.5 ng/mL. The squared correlation coefficient (R^2) values exceeded 0.999, indicating high linearity.
For sample preparation, 100 μL of plasma was mixed with 10 μL of internal standard (IS) and 900 μL of acetonitrile, followed by vortexing for 2 min. The mixture was then centrifuged at 13,400 × g at 4°C for 10 min. The supernatant was filtered through a 0.22 μm organic membrane, and the resulting sample was analyzed using UPLC-MS/MS.
Cats were divided into seven groups, with six cats in each group. In the intravenous (i.v.) group (Group 1), cats received an injection of KPT-335 at a dosage of 1 mg/kg body weight (BW), administered via a bolus through a venous infusion needle. For the oral (p.o.) administration, cats were given capsules in a fasting state at doses of 0.2 mg/kg BW (Group 2), 1 mg/kg BW (Group 3), and 2 mg/kg BW (Group 4). Additionally, tablets were administered at 1 mg/kg BW (fasting, Group 5), 1 mg/kg BW (Group 6), and 2 mg/kg BW (Group 7) in a feeding state, followed by 3 mL of water delivered with a syringe.
For the p.o. administration, blood samples of 1.5 mL were collected via the brachial cephalic vein prior to administration and at 0.167, 0.333, 0.5, 0.75, 1, 1.5, 2, 4, 6, 8, 12, 24, 32, and 48 h post-administration. […]

[1] = cats, i.v., Injection, 1 mg/kg BW
[2] = cats, p.o., Capsule, Fasting, 0.2 mg/kg BW
[3] = cats, p.o., Capsule, Fasting, 1 mg/kg BW
[4] = cats, p.o., Capsule, Fasting, 2 mg/kg BW
[5] = cats, p.o., Tablet, Fasting, 1 mg/kg BW
[6] = cats, p.o., Tablet, Feeding, 1 mg/kg BW

SMILES: O=C(/C=C\n1cnc(-c2cc(C(F)(F)F)cc(C(F)(F)F)c2)n1)NNc1ccccn1 [KPT-335]
- Plasma concentration (cats, i.v. 1 mg/kg BW, 1 h, 1 mg/kg, in ng/mL): 643.90 and 242.31 and 664.36 and 555.75 and 518.04 and 558.85
- Plasma concentration (cats, i.v. 1 mg/kg BW, 2 h, 1 mg/kg, in ng/mL): 490.02 and 194.67 and 604.45 and 427.47 and 433.50 and 495.92
- Plasma concentration (cats, i.v. 1 mg/kg BW, 4 h, 1 mg/kg, in ng/mL): 278.69 and 140.14 and 326.77 and 250.68 and 245.55 and 286.46
- Plasma concentration (cats, i.v. 1 mg/kg BW, 8 h, 1 mg/kg, in ng/mL): 92.64 and 60.90 and 157.56 and 64.79 and 88.37 and 110.98
- Plasma concentration (cats, i.v. 1 mg/kg BW, 12 h, 1 mg/kg, in ng/mL): 91.54 and 31.99 and 27.73 and 24.10 and 36.17 and 25.48
- Plasma concentration (cats, i.v. 1 mg/kg BW, 24 h, 1 mg/kg): 2.04 ng/mL and 1.82 ng/mL
- Plasma concentration (cats, i.v. 1 mg/kg BW, 24 h, 1 mg/kg, in ng/mL): 11.88 and 15.46 and 18.84 and 11.18
- Plasma concentration (cats, i.v. 1 mg/kg BW, 32 h, 1 mg/kg): 2.52 and 2.36 and 9.45 and 1.34 and 8.61 and BLOQ
- Plasma concentration (cats, i.v. 1 mg/kg BW, 48 h): BLOQ
- AUC_%Extrap_obs [1]: 0.83 ± 0.69%
- HL_Lambda_z [1]: 3.93 ± 0.84 h
- reduction of absolute bioavailability when dosage is increased to 2 mg/kg BW (cats, p.o.): 15–25%
- AUC_%Extrap_obs [2]: 7.53 ± 7.79%
- HL_Lambda_z [2]: 7.04 ± 3.26 h
- AUC_%Extrap_obs [3]: 0.47 ± 0.13%
- HL_Lambda_z [3]: 5.37 ± 1.01 h
- AUC_%Extrap_obs [4]: 0.75 ± 0.38%
- HL_Lambda_z [4]: 6.78 ± 0.97 h
- AUC_%Extrap_obs [5]: 0.82 ± 0.39%
- HL_Lambda_z [5]: 5.76 ± 1.16 h
- AUC_%Extrap_obs [6]: 0.92 ± 1.43%
- HL_Lambda_z [6]: 4.20 ± 1.26 h
- AUC_%Extrap_obs (cats, p.o., Tablet, Feeding, 2 mg/kg BW): 0.39 ± 0.24%
- HL_Lambda_z (cats, p.o., Tablet, Feeding, 2 mg/kg BW, 2 mg/kg): 3.54 h and 3.54 ± 0.81 h
- impact of feeding on the AUC (cats, tablet 1 mg/kg BW fasting vs feeding): minimal to no impact
- Plasma concentration (cats, tablet p.o. 1 mg/kg BW after fasting, 48 h, 1 mg/kg): BLOQ
- Plasma concentration (cats, tablet p.o. 1 mg/kg BW after feeding, 24 h, 1 mg/kg): BLOQ
- Plasma concentration (cats, tablet p.o. 1 mg/kg BW after feeding, 32 h, 1 mg/kg): BLOQ
- Plasma concentration (cats, tablet p.o. 1 mg/kg BW after feeding, 48 h, 1 mg/kg): BLOQ
- Plasma concentration (cats, tablet p.o. 2 mg/kg BW after feeding, 32 h, 2 mg/kg): BLOQ
- Plasma concentration (cats, tablet p.o. 2 mg/kg BW after feeding, 48 h): BLOQ
- AUC(0-t) (female, iv, 1 mg/kg, female cats, i.v., Injection, 1 mg/kg BW, read-out: AUClast Value females): 3060 ± 193 ng·h/mL
- Cmax (female, iv, 1 mg/kg, female cats, i.v., Injection, 1 mg/kg BW, read-out: Cmax Value females): 886 ± 54 ng/mL
- AUC(0-t) (female, po, 0.2 mg/kg, female cats, p.o., Capsule, Fasting, 0.2 mg/kg BW, read-out: AUClast Value females): 244 ± 23.4 ng·h/mL
- Cmax (female, po, 0.2 mg/kg, female cats, p.o., Capsule, Fasting, 0.2 mg/kg BW, read-out: Cmax Value females): 31.1 ± 11.2 ng/mL
- AUC(0-t) (female, po, 1 mg/kg, female cats, p.o., Capsule, Fasting, 1 mg/kg BW, read-out: AUClast Value females): 1490 ± 292 ng·h/mL
- Cmax (female, po, 1 mg/kg, female cats, p.o., Capsule, Fasting, 1 mg/kg BW, read-out: Cmax Value females): 284 ± 95.8 ng/mL
- AUC(0-t) (female, po, 1 mg/kg, female cats, p.o., Tablet, Fasting, 1 mg/kg BW, read-out: AUClast Value females): 2480 ± 1160 ng·h/mL
- Cmax (female, po, 1 mg/kg, female cats, p.o., Tablet, Fasting, 1 mg/kg BW, read-out: Cmax Value females): 220 ± 48.4 ng/mL
- AUC(0-t) (female, po, 1 mg/kg, female cats, p.o., Tablet, Feeding, 1 mg/kg BW, read-out: AUClast Value females): 2660 ± 1870 ng·h/mL
- Cmax (female, po, 1 mg/kg, female cats, p.o., Tablet, Feeding, 1 mg/kg BW, read-out: Cmax Value females): 467 ± 139 ng/mL
- AUC(0-t) (female, po, 2 mg/kg, female cats, p.o., Capsule, Fasting, 2 mg/kg BW, read-out: AUClast Value females): 1830 ± 39.6 ng·h/mL
- Cmax (female, po, 2 mg/kg, female cats, p.o., Capsule, Fasting, 2 mg/kg BW, read-out: Cmax Value females): 233 ± 52.4 ng/mL
- AUC(0-t) (female, po, 2 mg/kg, female cats, p.o., Tablet, Feeding, 2 mg/kg BW, read-out: AUClast Value females): 2840 ± 1090 ng·h/mL
- Cmax (female, po, 2 mg/kg, female cats, p.o., Tablet, Feeding, 2 mg/kg BW, read-out: Cmax Value females): 538 ± 150 ng/mL
- AUC(0-t) (male, iv, 1 mg/kg, male cats, i.v., Injection, 1 mg/kg BW, read-out: AUClast Value males): 3290 ± 1300 ng·h/mL
- Cmax (male, iv, 1 mg/kg, male cats, i.v., Injection, 1 mg/kg BW, read-out: Cmax Value males): 816 ± 443 ng/mL
- AUC(0-t) (male, po, 0.2 mg/kg, male cats, p.o., Capsule, Fasting, 0.2 mg/kg BW, read-out: AUClast Value males): 312 ± 241 ng·h/mL
- Cmax (male, po, 0.2 mg/kg, male cats, p.o., Capsule, Fasting, 0.2 mg/kg BW, read-out: Cmax Value males): 24.1 ± 6.3 ng/mL
- AUC(0-t) (male, po, 1 mg/kg, male cats, p.o., Capsule, Fasting, 1 mg/kg BW, read-out: AUClast Value males): 1340 ± 704 ng·h/mL
- Cmax (male, po, 1 mg/kg, male cats, p.o., Capsule, Fasting, 1 mg/kg BW, read-out: Cmax Value males): 237 ± 56.7 ng/mL
- AUC(0-t) (male, po, 1 mg/kg, male cats, p.o., Tablet, Fasting, 1 mg/kg BW, read-out: AUClast Value males): 2340 ± 453 ng·h/mL
- Cmax (male, po, 1 mg/kg, male cats, p.o., Tablet, Fasting, 1 mg/kg BW, read-out: Cmax Value males): 307 ± 183 ng/mL
- AUC(0-t) (male, po, 1 mg/kg, male cats, p.o., Tablet, Feeding, 1 mg/kg BW, read-out: AUClast Value males): 1850 ± 11.1 ng·h/mL
- Cmax (male, po, 1 mg/kg, male cats, p.o., Tablet, Feeding, 1 mg/kg BW, read-out: Cmax Value males): 261 ± 38.3 ng/mL
- AUC(0-t) (male, po, 2 mg/kg, male cats, p.o., Capsule, Fasting, 2 mg/kg BW, read-out: AUClast Value males): 1850 ± 1290 ng·h/mL
- Cmax (male, po, 2 mg/kg, male cats, p.o., Capsule, Fasting, 2 mg/kg BW, read-out: Cmax Value males): 328 ± 259 ng/mL
- AUC(0-t) (male, po, 2 mg/kg, male cats, p.o., Tablet, Feeding, 2 mg/kg BW, read-out: AUClast Value males): 3160 ± 107 ng·h/mL
- Cmax (male, po, 2 mg/kg, male cats, p.o., Tablet, Feeding, 2 mg/kg BW, read-out: Cmax Value males): 580 ± 56 ng/mL
